Values of other authors in patent US20240066021A1, “METHODS FOR OPTIMIZING CFTR-MODULATOR THERAPY” (Children's Hospital Medical Center, priority 2021, published 2024).

Assays:
UFO = target: T1, UFO (Homo sapiens, UniProt P30530); details: Target UFO, Gene Symbol AXL
T1 sequence (P30530 26-894): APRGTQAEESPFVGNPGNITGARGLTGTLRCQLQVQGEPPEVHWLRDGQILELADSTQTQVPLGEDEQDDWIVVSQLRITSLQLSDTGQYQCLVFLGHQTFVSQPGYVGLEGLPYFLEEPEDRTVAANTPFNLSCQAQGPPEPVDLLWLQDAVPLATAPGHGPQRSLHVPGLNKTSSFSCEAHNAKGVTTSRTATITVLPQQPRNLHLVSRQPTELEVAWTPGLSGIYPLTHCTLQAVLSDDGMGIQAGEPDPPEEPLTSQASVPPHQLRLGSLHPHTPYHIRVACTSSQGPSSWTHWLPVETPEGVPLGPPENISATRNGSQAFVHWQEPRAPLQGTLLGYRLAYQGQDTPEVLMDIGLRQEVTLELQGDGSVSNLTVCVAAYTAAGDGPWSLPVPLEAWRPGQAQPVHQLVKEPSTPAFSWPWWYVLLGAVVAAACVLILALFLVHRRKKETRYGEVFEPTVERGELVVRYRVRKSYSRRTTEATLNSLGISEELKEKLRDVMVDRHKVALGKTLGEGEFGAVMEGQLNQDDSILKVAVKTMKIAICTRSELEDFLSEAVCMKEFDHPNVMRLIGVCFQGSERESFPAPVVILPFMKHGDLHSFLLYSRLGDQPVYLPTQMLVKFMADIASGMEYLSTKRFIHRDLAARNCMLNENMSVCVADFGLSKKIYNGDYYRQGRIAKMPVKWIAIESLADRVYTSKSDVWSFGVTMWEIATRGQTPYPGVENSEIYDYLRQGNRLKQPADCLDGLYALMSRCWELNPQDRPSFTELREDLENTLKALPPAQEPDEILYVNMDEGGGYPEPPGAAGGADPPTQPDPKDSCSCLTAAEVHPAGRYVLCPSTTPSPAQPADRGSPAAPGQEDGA

CENP-E = CENP-E (Homo sapiens, UniProt Q02224); details: Target CENP-E, Gene Symbol CENPE
Chain of CENP-E (Q02224 whole entry): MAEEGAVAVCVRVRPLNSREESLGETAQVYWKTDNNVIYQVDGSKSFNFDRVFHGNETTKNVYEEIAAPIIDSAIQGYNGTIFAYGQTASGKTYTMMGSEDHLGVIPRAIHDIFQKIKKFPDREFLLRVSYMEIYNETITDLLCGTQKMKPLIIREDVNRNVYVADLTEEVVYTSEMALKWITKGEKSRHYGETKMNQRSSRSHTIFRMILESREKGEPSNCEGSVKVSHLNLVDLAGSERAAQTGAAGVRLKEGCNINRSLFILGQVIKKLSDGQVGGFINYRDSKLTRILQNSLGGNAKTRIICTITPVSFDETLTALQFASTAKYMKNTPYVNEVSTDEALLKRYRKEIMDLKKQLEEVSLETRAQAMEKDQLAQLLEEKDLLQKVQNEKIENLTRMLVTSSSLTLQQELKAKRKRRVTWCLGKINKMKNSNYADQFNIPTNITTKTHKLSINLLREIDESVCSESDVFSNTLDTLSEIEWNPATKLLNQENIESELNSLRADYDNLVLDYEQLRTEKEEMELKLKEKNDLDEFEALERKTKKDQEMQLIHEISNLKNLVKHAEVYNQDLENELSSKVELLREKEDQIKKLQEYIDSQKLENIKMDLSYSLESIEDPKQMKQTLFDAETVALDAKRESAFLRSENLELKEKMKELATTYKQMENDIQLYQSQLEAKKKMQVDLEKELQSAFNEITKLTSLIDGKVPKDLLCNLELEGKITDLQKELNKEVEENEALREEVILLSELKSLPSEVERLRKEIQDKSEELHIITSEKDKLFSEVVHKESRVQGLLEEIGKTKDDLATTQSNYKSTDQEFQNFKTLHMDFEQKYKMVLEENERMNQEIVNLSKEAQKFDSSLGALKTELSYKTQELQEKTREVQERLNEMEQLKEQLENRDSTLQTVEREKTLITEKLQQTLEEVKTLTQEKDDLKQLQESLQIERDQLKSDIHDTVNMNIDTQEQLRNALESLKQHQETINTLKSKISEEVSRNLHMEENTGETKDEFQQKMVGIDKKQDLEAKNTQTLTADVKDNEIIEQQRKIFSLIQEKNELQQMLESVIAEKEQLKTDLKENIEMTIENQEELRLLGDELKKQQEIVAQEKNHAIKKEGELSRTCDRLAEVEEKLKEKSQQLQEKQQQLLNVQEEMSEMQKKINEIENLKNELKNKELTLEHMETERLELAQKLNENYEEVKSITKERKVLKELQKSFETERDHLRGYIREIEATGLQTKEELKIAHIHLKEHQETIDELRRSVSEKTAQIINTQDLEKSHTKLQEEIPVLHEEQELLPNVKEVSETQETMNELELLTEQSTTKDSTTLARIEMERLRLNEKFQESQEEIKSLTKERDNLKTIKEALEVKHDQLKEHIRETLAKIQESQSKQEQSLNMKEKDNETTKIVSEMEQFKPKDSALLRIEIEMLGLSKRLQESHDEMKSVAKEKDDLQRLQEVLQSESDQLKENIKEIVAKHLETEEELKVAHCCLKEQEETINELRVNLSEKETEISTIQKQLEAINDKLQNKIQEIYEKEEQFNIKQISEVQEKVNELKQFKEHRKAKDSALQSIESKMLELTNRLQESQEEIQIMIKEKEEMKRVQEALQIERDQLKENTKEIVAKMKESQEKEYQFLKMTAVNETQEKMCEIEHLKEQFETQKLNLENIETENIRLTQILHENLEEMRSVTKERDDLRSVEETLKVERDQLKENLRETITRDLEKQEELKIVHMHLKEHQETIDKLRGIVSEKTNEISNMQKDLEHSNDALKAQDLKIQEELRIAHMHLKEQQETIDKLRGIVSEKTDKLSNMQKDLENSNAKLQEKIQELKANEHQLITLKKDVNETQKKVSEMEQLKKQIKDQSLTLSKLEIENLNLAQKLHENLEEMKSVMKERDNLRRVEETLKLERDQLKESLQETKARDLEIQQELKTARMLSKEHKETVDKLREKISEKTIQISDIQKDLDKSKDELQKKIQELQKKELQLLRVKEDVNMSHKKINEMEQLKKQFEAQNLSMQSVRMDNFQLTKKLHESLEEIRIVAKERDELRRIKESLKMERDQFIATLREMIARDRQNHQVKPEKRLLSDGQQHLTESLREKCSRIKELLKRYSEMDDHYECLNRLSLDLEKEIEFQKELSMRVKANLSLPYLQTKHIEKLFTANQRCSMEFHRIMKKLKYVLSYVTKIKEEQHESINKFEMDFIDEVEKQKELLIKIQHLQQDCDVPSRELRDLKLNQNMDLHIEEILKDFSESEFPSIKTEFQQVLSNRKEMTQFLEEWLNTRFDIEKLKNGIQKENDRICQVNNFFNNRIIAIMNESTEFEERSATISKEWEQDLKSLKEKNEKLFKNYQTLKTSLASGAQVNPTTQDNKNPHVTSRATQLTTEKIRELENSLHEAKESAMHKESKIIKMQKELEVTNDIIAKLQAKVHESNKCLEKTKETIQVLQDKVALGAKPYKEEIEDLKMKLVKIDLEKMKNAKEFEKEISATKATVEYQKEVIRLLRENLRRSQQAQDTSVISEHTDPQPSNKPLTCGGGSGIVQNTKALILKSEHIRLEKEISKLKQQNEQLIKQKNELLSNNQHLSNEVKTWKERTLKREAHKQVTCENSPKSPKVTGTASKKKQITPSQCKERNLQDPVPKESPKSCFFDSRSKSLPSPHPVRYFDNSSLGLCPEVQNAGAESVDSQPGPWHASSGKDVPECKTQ

| Effect (UFO) | Effect (CENP-E) | SMILES |
| --- | --- | --- |
| Inhibition |  | COc1cc2c(Oc3ccc(NC(=O)C4(C(=O)Nc5ccc(F)cc5)CC4)cc3F)ccnc2cc1OCCCN1CCOCC1 [Foretinib] |
|  | Inhibition | CC(C)Oc1ccc(C(=O)N[C@H](CNC(=O)CN(C)C)Cc2ccc(-c3cn4cccc([C@H](C)O)c4n3)cc2)cc1Cl [GSK-923295] |
